For orientation: IC50 means the point on the concentration scale where inhibition reaches its midpoint. Low readings indicate higher potency, high ones lower potency.

From ChEMBL document CHEMBL1159144, “Novel pyridazino[4,5-b][1,5]oxazepines and -thiazepines as 5-HT1A receptor ligands” (Bioorg Med Chem Lett, 1997) come the findings set out here.

Assay [1] concerns the target T1, 5-hydroxytryptamine receptor 1A (Rattus norvegicus, UniProt P19327).
T1 sequence (P19327 whole entry): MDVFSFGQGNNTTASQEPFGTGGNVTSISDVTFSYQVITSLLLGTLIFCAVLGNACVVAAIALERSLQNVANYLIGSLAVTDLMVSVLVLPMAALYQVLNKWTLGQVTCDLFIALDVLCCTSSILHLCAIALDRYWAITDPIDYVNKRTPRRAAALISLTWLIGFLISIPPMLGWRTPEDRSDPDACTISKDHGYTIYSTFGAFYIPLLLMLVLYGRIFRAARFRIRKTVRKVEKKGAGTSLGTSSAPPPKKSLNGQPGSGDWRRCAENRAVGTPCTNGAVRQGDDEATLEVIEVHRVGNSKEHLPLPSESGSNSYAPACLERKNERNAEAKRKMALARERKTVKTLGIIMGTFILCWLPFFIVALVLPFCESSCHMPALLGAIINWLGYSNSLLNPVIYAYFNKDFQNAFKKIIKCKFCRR
Kind of assay: Binding affinity towards 5-hydroxytryptamine 1A receptor using receptor binding assay.

The target in assay [2] is T2, Adrenergic receptor alpha-1 (Rattus norvegicus, UniProt P15823+P23944+P43140).
T2 sequence (P15823 whole entry): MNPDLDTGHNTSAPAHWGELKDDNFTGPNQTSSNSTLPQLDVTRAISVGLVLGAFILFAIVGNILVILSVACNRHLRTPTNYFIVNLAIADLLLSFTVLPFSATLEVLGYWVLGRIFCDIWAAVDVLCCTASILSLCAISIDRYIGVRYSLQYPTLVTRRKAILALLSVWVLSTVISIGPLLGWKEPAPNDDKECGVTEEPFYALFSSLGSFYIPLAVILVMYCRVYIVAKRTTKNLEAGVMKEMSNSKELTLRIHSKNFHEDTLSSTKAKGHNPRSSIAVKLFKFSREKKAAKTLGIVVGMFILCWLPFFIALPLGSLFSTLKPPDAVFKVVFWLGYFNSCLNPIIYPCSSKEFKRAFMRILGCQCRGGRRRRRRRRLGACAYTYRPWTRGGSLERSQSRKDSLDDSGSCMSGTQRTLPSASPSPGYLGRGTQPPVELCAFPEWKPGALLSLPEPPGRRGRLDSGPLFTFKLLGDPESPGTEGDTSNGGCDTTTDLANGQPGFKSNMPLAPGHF
T2 sequence (P23944 whole entry): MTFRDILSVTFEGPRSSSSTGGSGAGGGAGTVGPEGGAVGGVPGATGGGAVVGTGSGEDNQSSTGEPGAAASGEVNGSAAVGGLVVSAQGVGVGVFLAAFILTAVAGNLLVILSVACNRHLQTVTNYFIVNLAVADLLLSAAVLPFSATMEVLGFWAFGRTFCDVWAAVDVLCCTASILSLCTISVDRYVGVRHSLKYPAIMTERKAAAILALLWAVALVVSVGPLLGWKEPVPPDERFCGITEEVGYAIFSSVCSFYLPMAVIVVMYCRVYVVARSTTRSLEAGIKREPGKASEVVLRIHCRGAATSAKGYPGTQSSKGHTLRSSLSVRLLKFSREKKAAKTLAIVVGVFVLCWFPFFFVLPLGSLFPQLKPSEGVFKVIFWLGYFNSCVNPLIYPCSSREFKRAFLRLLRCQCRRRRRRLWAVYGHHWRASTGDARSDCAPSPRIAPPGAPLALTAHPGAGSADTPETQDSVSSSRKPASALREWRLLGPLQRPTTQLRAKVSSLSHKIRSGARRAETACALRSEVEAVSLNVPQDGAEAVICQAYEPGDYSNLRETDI
T2 sequence (P43140 whole entry): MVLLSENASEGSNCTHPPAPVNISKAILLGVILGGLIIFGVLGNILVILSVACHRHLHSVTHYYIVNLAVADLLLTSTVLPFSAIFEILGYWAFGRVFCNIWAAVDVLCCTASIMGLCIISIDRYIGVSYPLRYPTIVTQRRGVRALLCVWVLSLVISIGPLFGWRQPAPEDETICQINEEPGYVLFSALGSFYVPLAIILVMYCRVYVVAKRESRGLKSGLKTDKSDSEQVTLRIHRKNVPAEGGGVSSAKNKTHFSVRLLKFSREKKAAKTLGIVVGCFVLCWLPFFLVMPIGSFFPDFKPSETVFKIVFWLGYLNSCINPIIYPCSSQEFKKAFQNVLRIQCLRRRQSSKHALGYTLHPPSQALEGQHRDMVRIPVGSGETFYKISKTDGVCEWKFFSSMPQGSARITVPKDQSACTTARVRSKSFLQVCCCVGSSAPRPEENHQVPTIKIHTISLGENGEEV
Briefly: Binding affinity towards Alpha-1 adrenergic receptor. The format is protein assay.

Assay [3] addresses T3, Adrenergic receptor alpha-2 (Rattus norvegicus, UniProt P22086+P19328+P22909).
T3 sequence (P22086 whole entry): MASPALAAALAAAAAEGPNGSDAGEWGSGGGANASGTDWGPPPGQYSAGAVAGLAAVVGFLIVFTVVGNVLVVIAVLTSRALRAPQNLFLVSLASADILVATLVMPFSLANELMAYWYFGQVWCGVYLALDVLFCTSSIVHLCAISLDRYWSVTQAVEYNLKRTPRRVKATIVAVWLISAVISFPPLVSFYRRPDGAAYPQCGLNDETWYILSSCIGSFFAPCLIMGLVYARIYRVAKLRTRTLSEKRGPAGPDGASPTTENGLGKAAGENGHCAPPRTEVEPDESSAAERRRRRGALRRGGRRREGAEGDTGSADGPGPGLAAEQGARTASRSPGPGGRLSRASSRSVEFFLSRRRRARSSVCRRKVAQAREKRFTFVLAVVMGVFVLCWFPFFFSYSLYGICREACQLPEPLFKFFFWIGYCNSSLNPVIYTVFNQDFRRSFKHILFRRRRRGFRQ
T3 sequence (P19328 whole entry): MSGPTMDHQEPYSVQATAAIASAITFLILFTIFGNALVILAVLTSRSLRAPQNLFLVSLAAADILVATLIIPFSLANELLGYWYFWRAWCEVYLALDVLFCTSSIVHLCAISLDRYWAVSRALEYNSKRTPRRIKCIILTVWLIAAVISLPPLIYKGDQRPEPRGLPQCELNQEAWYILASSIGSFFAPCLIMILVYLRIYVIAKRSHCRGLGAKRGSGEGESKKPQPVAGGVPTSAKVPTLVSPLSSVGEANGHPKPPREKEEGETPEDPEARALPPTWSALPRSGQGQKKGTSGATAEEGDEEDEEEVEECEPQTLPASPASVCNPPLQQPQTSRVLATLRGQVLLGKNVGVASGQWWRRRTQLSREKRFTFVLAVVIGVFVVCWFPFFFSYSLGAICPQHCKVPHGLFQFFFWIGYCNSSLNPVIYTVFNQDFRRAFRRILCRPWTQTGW
T3 sequence (P22909 whole entry): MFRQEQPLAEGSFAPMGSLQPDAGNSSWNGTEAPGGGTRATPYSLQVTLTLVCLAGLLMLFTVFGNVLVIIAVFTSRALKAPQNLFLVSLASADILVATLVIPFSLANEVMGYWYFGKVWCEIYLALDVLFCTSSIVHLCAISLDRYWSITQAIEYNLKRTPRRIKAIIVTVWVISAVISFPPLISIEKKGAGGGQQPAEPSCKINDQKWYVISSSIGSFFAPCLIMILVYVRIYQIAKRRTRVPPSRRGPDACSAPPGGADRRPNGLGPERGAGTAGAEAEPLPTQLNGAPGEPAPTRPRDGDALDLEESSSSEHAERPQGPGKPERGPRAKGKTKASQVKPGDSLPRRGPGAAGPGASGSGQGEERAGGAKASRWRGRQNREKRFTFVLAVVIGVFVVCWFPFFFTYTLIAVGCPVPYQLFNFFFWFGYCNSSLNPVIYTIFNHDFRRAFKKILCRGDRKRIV
Briefly: Binding affinity towards Alpha-2 adrenergic receptor. The format is protein assay.

Where only a bound is given, the exact number is not on record here.

Regarding `COc1ccccc1OCCN(C)CCC(=O)N1CCCOc2c1cnn(C)c2=O`, the IC50 in assay [1] was 134 nM; in assay [2], 16100 nM; in assay [3], 9500 nM.

In the case of `COc1ccccc1OCCNCCC(=O)N1CCCSc2c1cnn(C)c2=O`, the IC50 in assay [1] came to 11.4 nM; in assay [2], 1700 nM; in assay [3], 270 nM.

`COc1ccccc1OCCN(CCC(=O)N1CCCOc2c1cnn(C)c2=O)Cc1ccccc1`: in assay [1], the IC50 was found to be 1000 nM.

Turning to `CCSc1c(N(C)C(=O)CCNCCOc2ccccc2OC)cnn(C)c1=O`, the IC50 in assay [1] worked out at 32.7 nM.

Turning to `COc1ccccc1OCCNCCCC(=O)N1CCCSc2c1cnn(C)c2=O`, the figures for the IC50 in assay [1], in assay [2] and in assay [3] were 9.2 nM, 930 nM and 860 nM, respectively.

In the case of `Cn1ncc2c(c1=O)SCCCN2C(=O)CCNCCOc1cccc(Cl)c1`, the IC50 in assay [1] came out at 181 nM.

Regarding `Cn1ncc2c(c1=O)SCCCN2C(=O)CCNCCOc1ccccc1`, in assay [1], the IC50 is 150 nM.

`COc1ccccc1OCC(O)CN1CCN(CCC(=O)N2CCCOc3c2cnn(C)c3=O)CC1` (stereo unspecified): the IC50 is over 1000 nM in assay [1], over 10000 nM in assay [2] and 47000 nM in assay [3].

`COc1ccccc1OCCNCCCC(=O)N1CCCOc2c1cnn(C)c2=O`: the IC50 in assay [1] is 17.8 nM; in assay [2], 690 nM; in assay [3], 3900 nM.

Take `Cn1ncc2c(c1=O)OCCCN2C(=O)CNCCOc1ccccc1`: the IC50 in assay [1] turned out to be 230 nM.

As to `Cn1ncc2c(c1=O)OCCCN2C(=O)CCNCCOc1cccc(Cl)c1`, in assay [1], the IC50 was determined as 312 nM. This IC50 and that of the molecule before are within 1.5-fold of each other.

On to `COc1ccccc1OCCNCC(=O)N1CCCSc2c1cnn(C)c2=O`, for which the figures for the IC50 in assay [1], in assay [2] and in assay [3] were 37 nM, over 10000 nM and 3100 nM, respectively.

Molecule `COc1cccc(OCC(O)CN2CCN(CCC(=O)N3CCCSc4c3cnn(C)c4=O)CC2)c1` (stereo unspecified) returned a half-maximal inhibitory concentration (IC50) in assay [1] of 118 nM.

As for `COc1ccccc1OCCNC(C)C(=O)N1CCCOc2c1cnn(C)c2=O` (stereo unspecified), in assay [1], the 50% inhibitory concentration (IC50) was over 1000 nM.

With `COc1ccccc1OCCNCCC(=O)N1CCCOc2c1cnn(C)c2=O`, the 50% inhibitory concentration (IC50) in assay [1] is 19.5 nM; in assay [2] it was 1700 nM; in assay [3], 1800 nM.

As for `Cn1ncc2c(c1=O)SCCCN2C(=O)CNCC1COc2ccccc2O1` (stereo unspecified), the 50% inhibitory concentration (IC50) was 44.9 nM in assay [1], 19000 nM in assay [2] and 2330 nM in assay [3].

As for `COc1ccccc1OCC(O)CN1CCN(CC(=O)N2CCCOc3c2cnn(C)c3=O)CC1` (stereo unspecified), in assay [1], the half-inhibitory concentration (IC50) was over 1000 nM.

Take `COc1ccccc1OCCN(C)CCCN1CCCSc2c1cnn(C)c2=O`: the IC50 in assay [1] is over 1000 nM.

`COc1ccccc1OCCNC(C)C(=O)N1CCCSc2c1cnn(C)c2=O` (stereo unspecified) came in with an IC50 in assay [1] of over 1000 nM.

Consider `Cn1ncc2c(c1=O)OCCCN2C(=O)CNCC1COc2ccccc2O1` (stereo unspecified), for which the results for the IC50 in assay [1], in assay [2] and in assay [3] were 299 nM, over 10000 nM and 4600 nM, respectively.

In assay [1], `COc1ccccc1OCCN(CCC(=O)N1CCCSc2c1cnn(C)c2=O)Cc1ccccc1` registered a 50% inhibitory concentration (IC50) of over 1000 nM.

In the case of `COc1ccccc1OCCNCC(=O)N1CCCOc2c1cnn(C)c2=O`, the half-inhibitory concentration (IC50) was determined as 163 nM in assay [1], 12500 nM in assay [2] and 21000 nM in assay [3].

`COc1ccccc1N1CCN(CC(=O)N2CCCOc3c2cnn(C)c3=O)CC1` showed an IC50 in assay [1] of over 1000 nM.

Turning to `Cn1ncc2c(c1=O)OCCCN2C(=O)CCNCCOc1ccccc1`, the IC50 in assay [1] amounted to 524 nM; in assay [2], 8900 nM; in assay [3] it was 540 nM.
